# Data reported in US20050208147A1, “Isolation of bivittoside D from sea cucumber and activity thereof” (Council of Scientific and Industrial Research, priority 2004, published 2005).
# Columns and labels:
# human spermatozoa = assay: Spermicidal activity in vitro, Sander Cramer assay; assay type: cell-based
# Description: The spermicidal activity was determined by the Sander Cramer assay (Sander, F. V., Cramer, S. D., Human Fertility, (1941) Vol. 6, p-134) using physiological saline (0.85% NaCl). Aqueous solutions (1.0% i.e. 10 mg/ml) of different fractions of B. vitiensis were prepared in physiological saline, which were diluted further up to a concentration of 0.01%. Human semen (0.2 ml) was mixed with each test solution (1.0 ml) separately and vortexed for 10 s. A wet mount of each preparation was immediately examined under a phase contrast microscope. The lowest spermicidal concentration that completely immobilized 100% of the spermatozoa within 20 s. was referred to as MEC (minimum effective concentration). The activity was confirmed in three different semen samples with >50×10^6/ml sperm count and >50% motility.
# Candida albicans = assay: In vitro antifungal MIC, broth micro-dilution (NCCLS M-27A); assay type: cell-based
# Description: (§1) Extracts/fractions/pure compounds obtained from B. vitiensis were tested in in-vitro antifungal activity against five pathogenic fungi in terms of minimum inhibitory concentration (mic,mg/ml) following reference methods. Mics for yeasts: Candida albicans (ca), Cryptococcus neoformans (cn) and Sporothrix schenckii (spo) were determined by broth micro-dilution method according to guide lines of nccls documents m-27a1 (National Committee for Clinical Standards (1997) reference method for broth dilution. Antifungal susceptibility testing of yeast approved standards document m-27a, nccls, wayne, Pa.) In RPMI-1640 medium buffered at pH 7.0 with 0.165 m morpholine propane sulphonic acid (mops: Sigma USA moris; Mo.). Assays were performed in flat bottomed 96 wells microlitre plate. Stock solution of products were prepared in DMSO and diluted by two-fold serial dilution. The working suspension (0.5×103 to 2.5×103) of the innoculum, prepared spectrophotometrically (0.5 mc Farland turbidity standard) was made by a 1:50 dilution followed by a 1:20 dilution of the seeded broth in RPMI-1640. Suitable controls were maintained simultaneously. Plates were incubated at 35° C. and observed visually at 24 hr for ca and 48 hr cn and spo. The susceptibilities of molds Aspergillus fumigatus (af) and Frichophyton mentagrophytes (tm) were determined by the NCCLS proposed document m-38p2 (National Committee for Clinical laboratory Standards (1997) reference method for broth dilution antifungal susceptibility testing of Aspergillus, proposed standards document m-38 p, nccls, wayne, Pa.). In brief, cultures were grown on sabouraud dextrose agar at 35° C. until sporulation occurred. Spores were suspended in 0.85% normal saline and diluted in RPMI-1640 to yield 104 cf p/ml.
# Cryptococcus neoformans = assay: as above; assay type: cell-based
# Description: as §1
# Sporothrix schenckii = assay: as above; assay type: cell-based
# Description: as §1
# [1] = tested on: trichophyton mentagrophytes; assay: In vitro antifungal MIC for molds (NCCLS M-38P); assay type: cell-based
# Description: as §1, with “The working suspension (0.5×103 to 2.5×103) of the innoculum, prepared spectrophotometrically (0.5 mc Farland turbidity standard) was made by a 1:50 dilution followed by a 1:20 dilution of the seeded broth in RPMI-1640. Suitable controls were maintained simultaneously. Plates were incubated at 35° C. and observed visually at 24 hr for ca and 48 hr cn and spo.” left out, “In brief, cultures were grown on sabouraud dextrose agar at 35° C. until sporulation occurred. Spores were suspended in 0.85% normal saline and diluted in RPMI-1640 to yield 104 cf p/ml.” left out
# Aspergillus fumigatus = assay: In vitro antifungal MIC for molds (NCCLS M-38P); assay type: cell-based; parameters: mic against af: unit not given here
# Description: as §1, with “The working suspension (0.5×103 to 2.5×103) of the innoculum, prepared spectrophotometrically (0.5 mc Farland turbidity standard) was made by a 1:50 dilution followed by a 1:20 dilution of the seeded broth in RPMI-1640. Suitable controls were maintained simultaneously. Plates were incubated at 35° C. and observed visually at 24 hr for ca and 48 hr cn and spo.” left out, “In brief, cultures were grown on sabouraud dextrose agar at 35° C. until sporulation occurred. Spores were suspended in 0.85% normal saline and diluted in RPMI-1640 to yield 104 cf p/ml.” left out
# [2] = tested on: Aspergillus niger, A. oryzae, Penicillium citrinum, P. chrysogenum, Mucor spinescens, Cladosporium herbarium, Rhodotorula rubra, Trichophyton mentagrophytes, T.; conditions: panel of eleven fungi; literature report; cited from earlier work
# [3] = read at 48 hr, tested at 1000-1.95 mg/ml
substance,measurement,setting,value
Bivittoside-D [K007],spermicidal activity (in words),human spermatozoa; in vitro model,promising spermicidal
same,Mec (minimum effective concentration),human spermatozoa; lowest concentration that completely immobilized 100% of human spermatozoa within 20 s,0.05%
same,mic against ca,Candida albicans,3.12 µg/mL
same,"Mics against pathogenic fungi, ca","Candida albicans; read at 24 hr, tested at 1000-1.95 mg/ml",3.12 μg/mi.
same,mic against cn,Cryptococcus neoformans,6.25 mg/mL
same,"Mics against pathogenic fungi, Cn",Cryptococcus neoformans; [3],6.25 μg/mi.
same,mic against spo,Sporothrix schenckii,6.25 mg/mL
same,"Mics against pathogenic fungi, spo",Sporothrix schenckii; [3],1.56 μg/mi.
same,mic against tm,[1],1.56 mg/mL
same,"Mics against pathogenic fungi, tm",[1]; tested at 1000-1.95 mg/ml,1.56 μg/mi.
same,mic against af,Aspergillus fumigatus; Aspergillus fumigatus,12.57
same,"Mics against pathogenic fungi, Af","Aspergillus fumigatus; aspergillus fumigates, tested at 1000-1.95 mg/ml",12.5 μg/mi.
same,antifungal activities (in words),[2],significant antifungal activities
